Experimental data: EP4775577A1, “RAS INHIBITOR” (Tyligand Bioscience (Shanghai) Limited, priority 2023, dated 2025)

Legend:
[1] = test system: KRAS G12D mutant AGS cells; test: Proliferation inhibition of AGS cells, CellTiter-Glo assay; type: cell-based, human; details: Homo sapiens, AGS, 72 h, 3 days, CTG; read-out: AGS IC50/nM
Procedure, shortened: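 AGS cells at 1500 cells/well in F12K + 10% FBS were exposed for 3 days at 37°C to nine 3-fold dilutions from 10 µM top concentration, in duplicate. Viability read by CellTiter-Glo luminescence; IC50 (nM) from dose-response-inhibition fitting.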

[2] = test system: KRAS G12V mutant NCI-H727 cells; test: Proliferation inhibition of NCI-H727 cells, 3D CellTiter-Glo assay (Method B); type: cell-based, human; details: Homo sapiens, NCI-H727, 120 h, Method B; 3D culture with 0.65% methylcellulose, 5 days, CTG; read-out: NCI-H727 IC50/nM
Procedure, shortened: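 Cells grown in 3D medium (RPMI-1640, 10% FBS, 0.65% methylcellulose) overnight, then treated 5 days at 37 °C, 5% CO2 with 9 threefold dilutions from 10 µM top working concentration, duplicate wells. CellTiter-Glo luminescence read; IC50 (nM) fitted by dose-response-inhibition equation.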

SMILES	IC50 [1] [nM]	IC50 [2] [nM]
CN1CC/C(=C\F)[C@](C)(COc2nc(N3CCCn4nc(C(=O)N(C)C)cc4C3)c3cc(/C=C/F)c(-c4cccc5sc(N)c(C#N)c45)c(F)c3n2)C1 [Example 111]	25.6	54.7
CN1CC/C(=C\F)[C@](C)(COc2nc(N3CCCn4nc(C(=O)N(C)C)cc4C3)c3cc(/C=C\F)c(-c4cccc5sc(N)c(C#N)c45)c(F)c3n2)C1 [Example 112]	9.9	20.2
CN1CC/C(=C\F)[C@](C)(COc2nc(N3CCCN4C(=O)OCC4C3)c3cc(C(F)(F)F)c(-c4cccc5sc(N)c(C#N)c45)c(F)c3n2)C1 (stereo partly shown) [Example 113]	584	168
CNC(=O)c1cc2n(n1)CCCN(c1nc(OC[C@]3(C)CN(C)CC/C3=C\F)nc3c(F)c(-c4cccc5sc(N)c(C#N)c45)c(C(F)(F)F)cc13)C2 [Example 118]	12.8	35.5
CN1CC/C(=C\F)[C@](C)(COc2nc(N3CCCn4nc(C(=O)N(C)C)c(N)c4C3)c3cc(C(F)(F)F)c(-c4cccc5sc(N)c(C#N)c45)c(F)c3n2)C1 [Example 120]	10.3	29.8
CN1CC/C(=C\F)[C@](C)(COc2nc(N3CCCn4nc(N)c(C(=O)N(C)C)c4C3)c3cc(C(F)(F)F)c(-c4cccc5sc(N)c(C#N)c45)c(F)c3n2)C1 [Example 121]	179	439
CCc1cc2c(N3Cc4cc(C(=O)N(C)C)nn4CC[C@@H]3C)nc(OC[C@]3(C)CN(C)CC/C3=C\F)nc2c(F)c1-c1cccc2sc(N)c(C#N)c12 [Example 165A]	3.2	3.6
CCc1cc2c(N3Cc4cc(C(=O)N(C)C)nn4CC[C@@H]3C)nc(OC[C@]3(C)CN(C)CC/C3=C\F)nc2c(F)c1-c1ccc(F)c2sc(N)c(C#N)c12 [Example 166A]	4.9	7.4
CN1CC/C(=C\F)[C@](C)(COc2nc(N3CCCn4nc(C(=O)N(C)C)c(Cl)c4C3)c3cc(C4CC4)c(-c4ncc(F)c5sc(N)c(C#N)c45)c(F)c3n2)C1 [Example 167A]	21.7	96.7
C[C@H]1CCn2nc(C(=O)N(C)C)cc2CN1c1nc(OC[C@]2(C)CN(C)CC/C2=C\F)nc2c(F)c(-c3ncc(F)c4sc(N)c(C#N)c34)c(C3CC3)cc12 [Example 168A]	42.1	85
CCc1cc2c(N3CCCn4nc(C(=O)N(C)C)c(Cl)c4C3)nc(OC[C@]3(C)CN(C)CC/C3=C\F)nc2c(F)c1-c1ncc(F)c2sc(N)c(C#N)c12 [Example 169A]	14.6	59.9
CCc1cc2c(N3Cc4cc(C(=O)N(C)C)nn4CC[C@@H]3C)nc(OC[C@]3(C)CN(C)CC/C3=C\F)nc2c(F)c1-c1ncc(F)c2sc(N)c(C#N)c12 [Example 170A]	33.2	81.9
Cc1c(-c2ncc(F)c3sc(N)c(C#N)c23)c(Cl)cc2c(N3Cc4cc(C(=O)N(C)C)nn4CC[C@@H]3C)nc(OC[C@]3(C)CN(C)CC/C3=C\F)nc12 [Example 171A]	4.7	4.1
CCN1CC/C(=C\F)[C@](C)(COc2nc(N3CCCn4nc(C(=O)N(C)C)c(Cl)c4C3)c3cc(Cl)c(-c4c(F)ccc5sc(N)c(C#N)c45)c(C)c3n2)C1 [Example 180]	10.6	11.3
[2H]C([2H])([2H])N1CCC(=CF)C(C)(COc2nc(N3CCCn4nc(C(=O)N(C)C)c(Cl)c4C3)c3cc(CC)c(-c4c(F)ccc5sc(N)c(C#N)c45)c(C)c3n2)C1 (stereo not shown) [Example 186]	4.4	5.4
[2H]C([2H])([2H])N1CCC(=CF)C(C)(COc2nc(N3Cc4cc(C(=O)N(C)C)nn4CCC3C)c3cc(CC)c(-c4c(F)ccc5sc(N)c(C#N)c45)c(C)c3n2)C1 (stereo not shown) [Example 188]	2.9	3.1
CCc1cc2c(N3Cc4cc(C(=O)N(C)C)nn4CCC3C)nc(OCC3(C)CN(CC)CCC3=CF)nc2c(C)c1-c1c(F)ccc2sc(N)c(C#N)c12 (stereo not shown) [Example 189]	2	2.6
[2H]C([2H])([2H])N1CCC(=CF)C(C)(COc2nc(N3CCCn4nc(C(=O)N(C)C)c(Cl)c4C3)c3cc(CC)c(-c4c(F)ccc5sc(N)c(C#N)c45)c(Cl)c3n2)C1 (stereo not shown) [Example 190]	< 1.5	3.2
[2H]C([2H])([2H])N1CCC(=CF)C(C)(COc2nc(N3Cc4cc(C(=O)N(C)C)nn4CCC3C)c3cc(CC)c(-c4c(F)ccc5sc(N)c(C#N)c45)c(Cl)c3n2)C1 (stereo not shown) [Example 192]	< 1.5	2

SMILES	IC50 [1] [nM]	IC50 [2] [nM]
CCc1cc2c(N3Cc4cc(C(=O)N(C)C)nn4CCC3C)nc(OCC3(C)CN(CC)CCC3=CF)nc2c(Cl)c1-c1c(F)ccc2sc(N)c(C#N)c12 (stereo not shown) [Example 193]	< 1.5	2.1
CCc1cc2c(N3Cc4c(Cl)c(C(=O)N(C)C)nn4CCC3C)nc(OCC3(C)CN(C)CCC3=CF)nc2c(F)c1-c1c(F)ccc2sc(N)c(C#N)c12 (stereo not shown) [Example 194]	< 1.5	< 1.5
[2H]C([2H])([2H])N1CCC(=CF)C(C)(COc2nc(N3CCCn4nc(C(=O)N(C)C)c(Cl)c4C3)c3cc(Cl)c(-c4c(F)ccc5sc(N)c(C#N)c45)c(Cl)c3n2)C1 (stereo not shown) [Example 195]	2.5	2.5
[2H]C([2H])([2H])N1CCC(=CF)C(C)(COc2nc(N3Cc4cc(C(=O)N(C)C)nn4CCC3C)c3cc(Cl)c(-c4c(F)ccc5sc(N)c(C#N)c45)c(Cl)c3n2)C1 (stereo not shown) [Example 197]	3	2.1
CCN1CCC(=CF)C(C)(COc2nc(N3Cc4cc(C(=O)N(C)C)nn4CCC3C)c3cc(Cl)c(-c4c(C#N)c(N)cc(C)c4C(F)(F)F)c(C)c3n2)C1 (stereo not shown) [Example 221]	103	71.8
CCC1CCn2nc(C(=O)N(C)C)cc2CN1c1nc(OCC2(C)CN(CC)CCC2=CF)nc2c(F)c(-c3c(F)ccc4sc(N)c(C#N)c34)c(Cl)cc12 (stereo not shown) [Example 250A]	< 1.5	< 1.5
CCN1CC/C(=C\F)[C@](C)(COc2nc(N3CCCn4nc(C(=O)N(C)C)c(Cl)c4C3)c3cc(C(F)(F)F)c(-c4ncc(F)c5sc(N)c(C#N)c45)c(F)c3n2)C1 [Example 253]	2.5	8.7
CCN1CCC(=CF)C(C)(COc2nc(N3Cc4cc(C(=O)N5CCC5)nn4CCC3C)c3cc(Cl)c(-c4c(F)ccc5sc(N)c(C#N)c45)c(F)c3n2)C1 (stereo not shown) [Example 254A]	< 1.5	< 1.5
CCN1CCC(=CF)C(C)(COc2nc(N3Cc4c(Cl)nnn4CCC3C)c3cc(Cl)c(-c4c(F)ccc5sc(N)c(C#N)c45)c(F)c3n2)C1 (stereo not shown) [Example 259A]	3.1	1.7
CCN1CCC(=CF)C(C)(COc2nc(N3Cc4cc(C(=O)N5CCN(C)CC5)nn4CCC3C)c3cc(Cl)c(-c4c(F)ccc5sc(N)c(C#N)c45)c(F)c3n2)C1 (stereo not shown) [Example 261A]	< 1.5	1.9
CCN1CCC(=CF)C(C)(COc2nc(N3Cc4cc(C(=O)N5CCCC5)nn4CCC3C)c3cc(Cl)c(-c4c(F)ccc5sc(N)c(C#N)c45)c(F)c3n2)C1 (stereo not shown) [Example 262A]	2.9	2.4
[2H]C([2H])([2H])N1CCC(=CF)C(C)(COc2nc(N3Cc4cc(C(=O)N5CCOCC5)nn4CCC3C)c3cc(CC)c(-c4c(F)ccc5sc(N)c(C#N)c45)c(F)c3n2)C1 (stereo not shown) [Example 263A]	2.5	2.5
CCN1CCC(=CF)C(C)(COc2nc(N3Cc4cc(C(=O)N(C)CCF)nn4CCC3C)c3cc(Cl)c(-c4c(F)ccc5sc(N)c(C#N)c45)c(F)c3n2)C1 (stereo not shown) [Example 264A]	2.3	2.8
[2H]C([2H])([2H])N1CC/C(=C\F)[C@](C)(COc2nc(N3Cc4cc(C(=O)NC)nn4CC[C@@H]3C)c3cc(CC)c(-c4c(F)ccc5sc(N)c(C#N)c45)c(F)c3n2)C1 [Example 270A]	3.6	4.9
CCN1CC/C(=C\F)[C@](C)(COc2nc(N3Cc4c(COC)c(C(=O)N(C)C)nn4CC[C@@H]3C)c3cc(Cl)c(-c4ncc(F)c5sc(N)c(C#N)c45)c(F)c3n2)C1 [Example 271A]	9.3	8.7
CCN1CC[C@H](C(F)F)[C@](C)(COc2nc(N3Cc4c(COC)c(C(=O)N(C)C)nn4CC[C@@H]3C)c3cc(C(F)(F)F)c(-c4ncc(F)c5sc(N)c(C#N)c45)c(F)c3n2)C1 [Example 272A]	12.5	10.4
CCN1CC/C(=C\F)[C@](C)(COc2nc(N3Cc4c(COC)c(C(=O)N(C)C)nn4CC[C@@H]3C)c3cc(Cl)c(-c4c(F)ccc5sc(N)c(C#N)c45)c(OC)c3n2)C1 [Example 273A]	40.6	26.6
CCN1CC/C(=C\F)[C@](C)(COc2nc(N3Cc4cc(C(=O)N(C)C)nn4CC[C@@H]3C)c3cc(Cl)c(-c4nccc5sc(N)c(C#N)c45)c(C)c3n2)C1 [Example 276A]	18.5	33.4
CCN1CC/C(=C\F)[C@](C)(COc2nc(N3Cc4cc(C(=O)N5CC(F)C5)nn4CC[C@@H]3C)c3cc(Cl)c(-c4c(F)ccc5sc(N)c(C#N)c45)c(F)c3n2)C1 [Example 277A]	< 1.5	1.8
